The results in this text go back to patent publication US20250382250A1, “STILBENE DERIVATIVE AS AHR AGONIST AND USE THEREOF” (NANJING GRITPHARMACO., LTD., priority 2022, published 2025).

One data set relates to TNFa. As to the kind of experiment: Regulatory effect on cytokine secretion in PHA-stimulated PBMCs: TNFa. It counts as cell-based. To be noted: for TNFa: PBMCs, 15 μg/mL PHA, 24 h (PHA group 3649.21). On the procedure:
• (1) Cells: […]; • (2) Cell plating and treatment: After the PBMCs were taken out from the liquid nitrogen tank and thawed, 80 μL of culture medium was added to a 96-well plate, and the cells were added at 200,000 cells/well. The culture media containing 2 μM or 0.2 μM compound 2 #, compound 6 #, or reference 1 # were added to the 96-well plate at 80 μL, at a final drug concentration of 1 μM or 0.1 μM per well. The plate was let stand for 1 h for pretreatment. After the pretreatment, the drug-containing medium was discarded, and 1 μM or 0.1 μM solution containing 15 μg/mL PHA (phytohemaggluyinin) was added at 80 μL/well. After 24 h of stimulation, the content of cytokines in the culture medium was detected. • Blank control group: The cells were treated with a normal culture medium with no drugs; • PHA group: A culture medium containing 15 μg/mL PHA but no compounds of the present disclosure was added at 80 μL/well.

The test system of the next data set is DSS-induced colitis. As to the kind of experiment: DSS-induced colitis mouse model. It counts as in vivo, C57BL/6 mice. To be noted: 10 mg/kg intragastric, DSS 2.5% 8 days; for effect on colon length: day 9. On the procedure:
• (1) Animals: 40 C57BL/6 mice, male, aged 8 weeks, 22-24 g • (2) Materials: […] Biomedicals, USA, Cat. No. […] Tween 80; Wahaha purified water • (3) Procedures: […] The solution was inspected daily and replaced with fresh DSS solution when necessary. On day one after modeling, the treatment was given. […] On day 9, the mice were sacrificed, and the blood and colon were collected. The colon length, occult blood in the cecal contents, and other conditions were also recorded. Test compound formulation: 1.00 mg of compound powder was dissolved in 20 μL of DMSO completely. Then, 20 μL of Tween 80 was added, and the mixture was well mixed. 0.96 mL of Wahaha purified water was added, and the mixture was well mixed to give a 1 mg/mL solution, which was administered at a dose of 0.1 mL/10 g (body weight). Solvent: 20 μL of DMSO, 20 μL of Tween 80, and 0.96 mL of Wahaha purified water were mixed well (used in the modeling group).

Data set [1] is described as follows: Ointment diffusion test, ex vivo rabbit skin. It is filed as in vitro ADME. To be noted: ointments: 2# 1.2 wt %, 6# 1.2 wt %, benvitimod 1.0 wt %, 32° C. On the procedure: Test compounds: compound 2 #ointment, 1.2 wt %; compound 6 #ointment, 1.2 wt %; benvitimod ointment, 1.0 wt %;
• (1) Preparation of ex vivo rabbit skin • (2) Preparation of receiving liquid: 100 mL of polyethylene glycol 400 solution was brought to a final volume of 250 mL with normal saline. The mixture was mixed well and stored at 4° C. Before each permeation in the receiving compartment, the system was preheated to 32° C. • (3) In vitro transdermal test: A drug transdermal diffusion apparatus was used to fix the processed rabbit skin between the supply and receiving compartments, with the stratum corneum facing the supply compartment. A constant temperature water bath circulation at 32° C. was maintained. The system was equilibrated for 30 min. Upon each replacement of the receiving liquid, the air at the lower layer was exhausted, and the liquid droplets on the skin surface were removed with paper. 0.5 g of the ointment was evenly smeared in the supply compartment. The system was stirred with a magnetic stirring at a rotation speed of 600 r/min. At 0.5, 1, 2, 3, 4, 5, 7, 9, 12, and 24 h, 1 mL of sample liquid was taken out from the receiving compartment and transferred into a liquid phase vial, and simultaneously, an equal amount of fresh receiving liquid at the same temperature was added. The liquid phase detection was conducted to calculate the drug permeation rate.

For another data set, the system named is IMQ-induced psoriasis. As to the kind of experiment: IMQ-induced psoriasis in mice (PASI score). It counts as in vivo, KM mice. To be noted: for PASI score (folds, scales, erythema): IMQ mice, 1.2 wt % in blank matrix, 62.5 mg topical. On the procedure: • 1) The efficacy on IMQ-induced psoriasis in mice by compound 6 # was evaluated.
[drawing 91] • 2) Grouping • (1) Petrolatum+blank matrix group, 10 mice; • (2) IMQ+blank matrix group, 10 mice; • (3) IMQ+compound 6 #group (1.2 wt % in blank matrix), 10 mice. • IMQ: imiquimod • 3) Formulation • IMQ: 5% imiquimod (imiquimod was used for inducing psoriasis on the skin of modeling mice) 1.2% compound 6 #formulation was prepared in blank matrix • 4) Animals • Species and strain: SPF-grade KM mice, male • Weight: 35-40 g • Source: SPF (Beijing) Biotechnology Co., Ltd. • Housing conditions: air-conditioned room, with a temperature of 18-26° C. and a relative humidity of 20%-60%. • 5) Procedures
Skin pretreatment: Mice were given free access to water and food. After 5 days of adaptation in the animal room, the hair on the back of the mice within an area of 2 cm×2.5 cm was shaved. The area was treated with a depilatory cream for 30 s-1 min, and then the cream was removed with cotton pads. Randomization: 24 h after depilation, […] by weight: petrolatum+blank matrix group (10 mice); IMQ+blank matrix group (10 mice); IMQ+compound 6 #group (1.2% compound in blank matrix) (10 mice).
Modeling and treatment: 62.5 mg of 5% imiquimod or petrolatum in the morning was administered to the mice in the morning. In the afternoon, 62.5 mg of blank matrix or 1.2% compound 6 # was smeared on the back.
Recording: Before modeling in the morning, the condition of the skin folds, erythema, and scales was observed, scored, and photographed daily, and the mouse PASI score was calculated.

As to `Oc1cc(/C=C/c2ccc(F)cc2)cc(O)c1C1CCCCC1` [Compound 6, (E)-2-cyclohexyl-5-(4-fluorostyryl)-1,3-benzenediol], the TNFa in the data set on TNFa (0.1 μM) came to 1433.29 pg/mL; with TNFa (1 μM) it was 810.71 pg/mL. Further, in the data set on TNFa (1 μM), the “inhibitory effect on TNFa relative to reference 1# (benvitimod)” value stood at 2 folds. Besides, the “disease activity indicator (body weight change and hematochezia)” value in the data set on DSS-induced colitis was “a more significant effect”. The “effect on colon length” value in the data set with DSS-induced colitis was “superior to that in the reference 1 #benvitimod group”. For the same compound, in data set [1], the “24-hour drug permeation rate (rank order)” value is “benvitimod >2 #>6 #”. Also, the “PASI score (folds, scales, erythema)” value worked out at 3.90 in the data set with IMQ-induced psoriasis (Day 1); 4.30 with IMQ-induced psoriasis (Day 2); 6.10 in the data set with IMQ-induced psoriasis (Day 3); 6.30 in the data set with IMQ-induced psoriasis (Day 4); 6.50 in the data set on IMQ-induced psoriasis (Day 5); 5.80 in the data set with IMQ-induced psoriasis (Day 6). Moreover, the “PASI score (folds, scales, erythema)” value in the data set with IMQ-induced psoriasis (Day 7) was 5.60. Further, in the data set with IMQ-induced psoriasis (day 7, 1.2 wt % in blank matrix), the “therapeutic effect versus IMQ+blank matrix group” value is given as “significantly superior therapeutic effect”.
On to `CC(C)c1c(O)cc(/C=C/c2ccccc2)cc1O` [Reference 1#, Benvitimod, reference compound], for which the TNFa with TNFa (0.1 μM) amounted to 2559.02 pg/mL; with TNFa (1 μM) it was 2426.93 pg/mL. In addition, in the data set on DSS-induced colitis, the “disease activity indicator (body weight change and hematochezia)” value is reported as “good therapeutic effects”. For the same compound, the “effect on colon length” value in the data set on DSS-induced colitis is listed as “the conditions were improved”. Moreover, the “24-hour drug permeation rate (rank order)” value in data set [1] is “benvitimod >2 #>6 #”.
